The subject of one test is Aedes albopictus. Put plainly: Olfactometer attraction test of compounds and compositions. It is filed as in vivo. The source says:
The olfactometer was cleaned after each battery of tests.

In test [1] the test system is Aedes aegypti. Put plainly: Olfactometer attraction test, treatment port vs control port, approximately 75 female mosquitoes. It is filed as in vivo. The note with it: for LA Avg response: average of n = 51 trials, 200 μL of 1 μg/μL methanolic solution; for Response with Ace (%): base compound together with acetone; for Δ [(Resp with Ace) − Resp] (%): difference between response with acetone and response alone; for Acetone Avg response: average of n = 4 trials, 500 μL from a 60 mm diameter glass petri dish; for Δ [(Resp with LA) − Resp] (%): difference between response with L-lactic acid and response alone; for Response with L-LA (%): compound 500 μL together with L-lactic acid; for Response Avg %: 60 mL glass petri dish.
Experimental: (§1) The tests were conducted in an olfactometer (55 ft^3/min airflow, 80° F., 60% R.H.) as described by Posey, J. Med. Entomol., 35, 330-334 (1998); and LA is lactic acid. Mosquitoes were allowed to settle at least one hour prior to testing. The olfactometer was cleaned after each battery of tests. Each battery consisted of three tests, conducted at 08:30, 11:00 and 13:00 hours local time. Each of the three tests was conducted in a separate cage. The control consisted of identical sample delivery devices and conditions compared to that of the treatment side. Both the treatment and control ports were opened and closed simultaneously when inserting a new treatment/control.

Another test relates to Anopheles albimanus. Put plainly: Olfactometer attraction test of compounds and compositions. It is filed as in vivo.
The subject of test [2] is Aedes aegypti. Put plainly: Formulation and verification of the best blend: one treatment vs another treatment in the olfactometer. The note with it: 200 μg L-lactic acid (1w) vs. 200 μg L-lactic acid (1w) + Acetone (3B).
Experimental: as §1
The mark [3] stands for this setting: base compound alone (mode of action similar to lactic acid).
Setting [4] is: compound alone, high dose of 500 μL.

Molecules are shown by their SMILES. Where “and” joins values, the source holds several entries; their conditions need not be identical. Identical values can stand only once.

For `NCCCCN` [1,4-Diaminobutane], the “% caught” value in the test on Aedes albopictus (single treatment, 1B (1 black cap)) was 6.8%.
In the case of `C[C@H](O)C(=O)O` [L-lactic acid], the “LA Avg response” value in the test with Aedes aegypti [1] is 26%; in the test with Aedes aegypti [1] (listed as LA) it was “LA Avg: 1303/51 = 26%, n = 51 trials”. In the test with Aedes aegypti [1] (setting [3]), the “Response (%)” value came out at 26%. In the test with Aedes aegypti [1], the “Response with Ace (%)” value came to 88%. The “Δ [(Resp with Ace) − Resp] (%)” value with Aedes aegypti [1] is given as 62%. The “L-lactic acid response (%)” value in the test with Aedes aegypti [1] (single trials, 200 μL of a 1 μg/1 μL methanolic solution, dried 3 minutes in a petri dish, percentage caught of 75 female mosquitos) worked out at 27%. Also, the “% caught” value was 11.7% and 8.3% in the test on Aedes albopictus (single substance, 200 μg, listed as LA); 1.3% with Anopheles albimanus (single substance, 400 μg dish). Further, in the test with Aedes aegypti [2], the “% mosquitoes trapped, treatment vs treatment” value was found to be 8%.
In the case of `CC(C)=O` [acetone], the “Acetone Avg response” value in the test with Aedes aegypti [1] is 51%; with Aedes aegypti [1] (listed as Acetone) it was “Acetone Avg: 203/4 = 51%, n = 4 trials”. In addition, the “Response with L-LA (%), average in parentheses” value in the test on Aedes aegypti [1] (compound 500 μL with L-lactic acid, average of the trials) is recorded as “(88%)”. Moreover, in the test with Aedes aegypti [1] (compound alone 500 μL, average of the trials), the “Response (%), average in parentheses” value is given as “(51%)”. The “Δ [(Resp with LA) − Resp] (%)” value in the test on Aedes aegypti [1] was determined as 37%. For the same molecule, the “Acetone response (%)” value in the test with Aedes aegypti [1] (single trials, 500 μL, plated on a small petri dish) was 51% and 48% and 53%. In addition, the “% caught” value was 9.1% in the test with Aedes albopictus (single substance, 500 μL Dish) and 29.6% with Anopheles albimanus (single treatment, 500 μL).
On to `CSC` [dimethyl sulfide], for which, in the test on Aedes aegypti [1], the “Response with L-LA (%)” value was found to be 79% and the “Δ [(Resp with LA) − Resp] (%)” value was found to be 47%. In the test with Aedes aegypti [1] (setting [4]), the “Response (%)” value was 32%. For the same molecule, the “% caught” value in the test on Anopheles albimanus (single treatment, 500 μL) is 68.4%.
On to `CSSSC` [dimethyl trisulfide], for which, in the test on Aedes aegypti [1], the “Response with L-LA (%)” value came out at 67% and the “Δ [(Resp with LA) − Resp] (%)” value is listed as 46%. For the same molecule, the “Response (%)” value in the test on Aedes aegypti [1] (setting [4]) worked out at 21%. The “Response Avg %” value in the test on Aedes aegypti [1] (no Base, Activator1 dose 500) was 21.0%. Moreover, the “% caught” value in the test on Anopheles albimanus (single treatment, 500 μL) is recorded as 91.8%.
The matching figures for `C=CSCC` [ethyl vinyl sulfide]: 55%, 37%, 18%, 18.0% and 25.4%.
In the case of `C=CC(=C)C` [isoprene], the “Response (%)” value in the test with Aedes aegypti [1] (setting [3]) was found to be 12%. In addition, in the test with Aedes aegypti [1], the “Response with Ace (%)” value is listed as 56%, the “Response with L-LA (%)” value is given as 23%, the “Δ [(Resp with LA) − Resp] (%)” value is given as 11% and the “Δ [(Resp with Ace) − Resp] (%)” value is recorded as 44%. The “Response (%)” value with Aedes aegypti [1] (setting [4]) came to 12%. Also, the “% caught” value in the test with Anopheles albimanus (single treatment, 500 μL) is listed as 0.0%.
As for `CCCSSC` [methyl propyl disulfide], in the test with Aedes aegypti [1], the “Response with L-LA (%)” value stood at 40% and the “Δ [(Resp with LA) − Resp] (%)” value is reported as 21%. Besides, the “Response (%)” value in the test on Aedes aegypti [1] (setting [4]) was found to be 19%. In the test with Anopheles albimanus (single treatment, 500 μL), the “% caught” value is given as 12.3%.
The matching figures for `ClCCl` [methylene chloride]: 7090%, −7%, 87% and 75.7%.
Regarding `Cc1ccc(O)cc1` [p-cresol], in the test on Aedes aegypti [1], the “Response with L-LA (%)” value is 32% and the “Δ [(Resp with LA) − Resp] (%)” value is reported as 27%. Also, the “Response (%)” value in the test with Aedes aegypti [1] (setting [4]) was determined as 5%. Also, the “Response Avg %” value in the test on Aedes aegypti [1] (single compound, dose 500 (μL), Aedes aegypti attraction) was found to be 5.0%. Moreover, the “% caught” value in the test with Anopheles albimanus (single treatment, 500 μL) was 29.5%.
On to `N#CCc1ccccc1` [phenylacetonitrile], for which, in the test on Aedes aegypti [1], the “Response with L-LA (%)” value was found to be 63% and the “Δ [(Resp with LA) − Resp] (%)” value worked out at 47%. In addition, the “Response (%)” value with Aedes aegypti [1] (setting [4]) is given as 16%. For the same molecule, the “% caught” value in the test with Anopheles albimanus (single treatment, 500 μL) stood at 1.3%.

These data come from patent US7771713B2, “Chemical composition that attract arthropods” (priority 1999, dated 2010).
